Each compound was assayed on MV-4-11 cells (assay: Cell Viability Assay in MV-4-11 Cells). Conditions: Homo sapiens, MV4-11, 72 h, MV-4-11 cells, 72 h, Cell-Titer Glo; read-out: IC50.
Format: cell-based
In short: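 Luminescent ATP read-out (CellTiter-Glo) after 72 h compound treatment of MV-4-11 leukaemia cells (7,000 per well, IMDM plus 10% FBS). Values expressed relative to DMSO control and derived by four-parameter non-linear regression.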

| IC50 [nM] | Structure (SMILES) |
| --- | --- |
| 48 | COc1cc(C)c2c(N(C(=O)c3ccc(-c4nnc(C)s4)cc3F)[C@@H]3CCCNC3)nccc2c1 [Example 860, 2-fluoro-N-(6-methoxy-8-methyl-1-isoquinolyl)-4-(5-methyl-1,3,4-thiadiazol-2-yl)-N-[(3R)-3-piperidyl]benzamide] |
| 270 | CCn1cc(-c2cc3c(N(C(=O)c4ccc(-n5nnc6cccnc65)cc4F)[C@@H]4CCCNC4)nccc3s2)cn1 [Example 436, N-[2-(1-ethylpyrazol-4-yl)thieno[3,2-c]pyridin-4-yl]-2-fluoro-N-[(3R)-3-piperidyl]-4-(triazolo[4,5-b]pyridin-3-yl)benzamide] |
| 290 | Cc1cccc2ccnc(N(C(=O)c3ccc(Nc4nccc(C(N)=O)n4)cc3F)[C@@H]3CCCNC3)c12 [Example 402, (R)-2-((3-fluoro-4-((8-methylisoquinolin-1-yl)(piperidin-3-yl)carbamoyl)phenyl)amino)pyrimidine-4-carboxamide] |
| 140 | Cn1cc(-c2ccc(C(=O)N(c3nccc4sc(-c5ccc(-c6cc[nH]n6)cc5)cc34)[C@@H]3CCCNC3)c(F)c2)nn1 [Example 529, 2-fluoro-4-(1-methyltriazol-4-yl)-N-[(3R)-3-piperidyl]-N-[2-[4-(1H-pyrazol-3-yl)phenyl]thieno [3,2-c]pyridin-4-yl] benzamide] |
| 870 | Cn1cc(-c2ccc(C(=O)N(c3nccc4sc(-c5cnccn5)cc34)[C@@H]3CCCNC3)c(F)c2)nn1 [Example 482] |
| 41 | [2H]C([2H])([2H])Oc1cc(C)c2c(N(C(=O)c3ccc(-c4cn(CC)nn4)cc3F)[C@@H]3CCCNC3)nccc2c1 [Example 889, 4-(1-ethyltriazol-4-yl)-2-fluoro-N-[8-methyl-6-(trideuteriomethoxy)-1-isoquinolyl]-N-[(3R)-3-piperidyl]benzamide] |
| 130 | Cc1nnc(-c2ccc(C(=O)N(c3nccc4scc(C)c34)[C@@H]3CCCNC3)c(F)c2)s1 [Example 781, (R)-2-fluoro-4-(5-methyl-1,3,4-thiadiazol-2-yl)-N-(3-methylthieno[3,2-c]pyridin-4-yl)-N-(piperidin-3-yl)benzamide] |
| 940 | O=C(c1ccc(-n2nnc3cccnc32)cc1F)N(c1nccc2sc(-c3cccc(-c4ncco4)c3)cc12)[C@@H]1CCCNC1 [Example 449, 2-fluoro-N-[2-(3-oxazol-2-ylphenyl)thieno [3,2-c]pyridin-4-yl]-N-[(3R)-3-piperidyl]-4-(triazolo [4,5-b]pyridin-3-yl) benzamide] |
| 280 | Cc1noc(-c2ccc(C(=O)N(c3nccc4scc(C)c34)[C@@H]3CCCNC3)c(F)c2)n1 [Example 778, (R)-2-fluoro-4-(3-methyl-1,2,4-oxadiazol-5-yl)-N-(3-methylthieno[3,2-c]pyridin-4-yl)-N-(piperidin-3-yl)benzamide] |
| > 6200 | Cc1cccc2ccnc(N(C(=O)c3ccc(Nc4nccc(O)n4)cc3F)[C@@H]3CCCNC3)c12 [Example 735, (R)-2-fluoro-4-((4-hydroxypyrimidin-2-yl)amino)-N-(8-methylisoquinolin-1-yl)-N-(piperidin-3-yl)benzamide] |
| > 10000 | Cn1cc(-c2ccc(C(=O)N(c3nccc4sc(/C=C/C(N)=O)cc34)[C@@H]3CCCNC3)c(F)c2)nn1 [Example 486, N-[2-[(E)-3-amino-3-oxo-prop-1-enyl]thieno[3,2-c]pyridin-4-yl]-2-fluoro-4-(1-methyltriazol-4-yl)-N-[(3R)-3-piperidyl]benzamide] |
| 220 | Cn1cc(-c2ccc(C(=O)N(c3nccc4cc(-c5ccc(S(C)(=O)=O)cc5)ccc34)[C@@H]3CCCNC3)c(F)c2)nn1 [Example 582, (R)-2-fluoro-4-(1-methyl-1H-1,2,3-triazol-4-yl)-N-(6-(4-(methylsulfonyl)phenyl)isoquinolin-1-yl)-N-(piperidin-3-yl)benzamide] |
| 190 | Cc1cccc2ccnc(N(C(=O)c3ccc(Nc4ncc(N)cn4)cc3F)[C@@H]3CCCNC3)c12 [Example 410, (R)-4-((5-aminopyrimidin-2-yl)amino)-2-fluoro-N-(8-methylisoquinolin-1-yl)-N-(piperidin-3-yl)benzamide] |
| 250 | Cc1cccc2ccnc(N(C(=O)c3ccc(Nc4nccc(C5=CCNCC5)n4)cc3F)[C@@H]3CCCNC3)c12 [Example 665, (R)-2-fluoro-N-(8-methylisoquinolin-1-yl)-N-(piperidin-3-yl)-4-((4-(1,2,3,6-tetrahydropyridin-4-yl)pyrimidin-2-yl)amino)benzamide] |
| 92 | Cn1cc(-c2ccc(C(=O)N(c3nccc4sc(-c5ccc6[nH]ccc6c5)cc34)[C@@H]3CCCNC3)c(F)c2)nn1 [Example 546, 2-fluoro-N-[2-(1H-indol-5-yl)thieno[3,2-c]pyridin-4-yl]-4-(1-methyltriazol-4-yl)-N-[(3R)-3-piperidyl]benzamide] |
| 620 | COc1ccc2c(N(C(=O)c3ccc(-c4nnc(C)s4)cc3F)[C@@H]3CCCNC3)nccc2c1 [Example 762, (R)-2-fluoro-N-(6-methoxyisoquinolin-1-yl)-4-(5-methyl-1,3,4-thiadiazol-2-yl)-N-(piperidin-3-yl)benzamide] |
| 720 | Cc1noc(-c2ccc(C(=O)N(c3nccc4scc(C)c34)[C@@H]3CCCNC3)c(C)c2)n1 [Example 777, (R)-2-methyl-4-(3-methyl-1,2,4-oxadiazol-5-yl)-N-(3-methylthieno[3,2-c]pyridin-4-yl)-N-(piperidin-3-yl)benzamide] |
| 290 | Nc1nccc(-c2cc3c(N(C(=O)c4ccc(-n5nnc6cccnc65)cc4F)[C@@H]4CCCNC4)nccc3s2)n1 [Example 457, N-[2-(2-aminopyrimidin-4-yl)thieno[3,2-c]pyridin-4-yl]-2-fluoro-N-[(3R)-3-piperidyl]-4-(triazolo[4,5-b]pyridin-3-yl)benzamide] |
| > 10000 | Cn1cc(-c2ccc(C(=O)N(c3nccc4cccc(C=CCO)c34)[C@@H]3CCCNC3)cc2)nn1 (stereo in doubt) [Example 338, (R,Z)—N-(8-(3-hydroxyprop-1-en-1-yl)isoquinolin-1-yl)-4-(1-methyl-1H-1,2,3-triazol-4-yl)-N-(piperidin-3-yl)benzamide] |
| 3200 | Cn1cc(-c2ccc(C(=O)N(c3nccc4sc(C#CCO)cc34)[C@@H]3CCCNC3)c(F)c2)nn1 [Example 479, (R)-2-fluoro-N-(2-(3-hydroxyprop-1-yn-1-yl)thieno[3,2-c]pyridin-4-yl)-4-(1-methyl-1H-1,2,3-triazol-4-yl)-N-(piperidin-3-yl)benzamide] |
| > 7500 | Cc1nnc(-c2ccc(C(=O)N(c3nccc4cc(Cl)cc(C)c34)[C@@H]3CCCNC3)c(Cl)c2)o1 [Example 764, (R)-2-chloro-N-(6-chloro-8-methylisoquinolin-1-yl)-4-(5-methyl-1,3,4-oxadiazol-2-yl)-N-(piperidin-3-yl)benzamide] |

Same assay, conditions: MV-4-11 cells, 72 h, Cell-Titer Glo; read-out: IC50

| Structure (SMILES) | IC50 [nM] |
| --- | --- |
| CNC(=O)c1cccc(-c2cc3c(N(C(=O)c4ccc(-c5cn(C)nn5)cc4F)[C@@H]4CCCNC4)nccc3s2)c1 [Example 541, 2-fluoro-N-[2-[3-(methylcarbamoyl)phenyl]thieno[3,2-c]pyridin-4-yl]-4-(1-methyltriazol-4-yl)-N-[(3R)-3-piperidyl] benzamide] | 640 |
| Cn1cc(-c2ccc(C(=O)N(c3nccc4cc(-c5ccccc5)ccc34)[C@@H]3CCCNC3)c(F)c2)nn1 [Example 577, (R)-2-fluoro-4-(1-methyl-1H-1,2,3-triazol-4-yl)-N-(6-phenylisoquinolin-1-yl)-N-(piperidin-3-yl)benzamide] | 76 |
